This is an account of results in patent US11478526B2, “Methods of reducing neuroinflammation or toxicity induced by amyloid beta (abeta) using glucocorticoid induced leucine zipper (GILZ) analog peptides” (INDIANA UNIVERSITY RESEARCH AND TECHNOLOGY CORPORATION, priority 2016, dated 2022).

What all share (type): in vivo, mouse
The test system of assay [1] is Phospho-NF-κB p65 (Ser536). Nature of the assay: LPS induced neuroinflammation: Phospho-NF-κB p65 ELISA of brain homogenates. The conditions noted are these: 25 mg/kg i.v. alternate days, day 7. The protocol:
Animals and lipopolysaccharide induced neuroinflammation: Male C57/6J mice weighing 32 to 37 grams were housed five per cage at a temperature of 22±2° C. with 12 hour light/12 hour dark cycles with free access to laboratory food and water. Lipopolysaccharides (LPS) from Escherichia coli 026:B6, =10,000 EU/mg, purified by phenol extraction was purchased from Sigma (Sigma Aldrich, Mo., USA). The mice were randomly divided into seven groups: LPS, LPS+GA-1 or GA-2 or CP-1 or CP-2 or CP-3 or TAT. The LPS was administered intraperitoneally at […] in 100 μl of sterile saline followed by corn oil in the morning daily for six days. The GA or CP was administered intravenously at 25 mg/kg in 100 μl of sterile saline on alternate days. Additional control group included mice receiving saline alone. […]
NF-κB assay: Brain homogenates processed as above were assessed by the Cell Signaling Technology PathScan® Phospho-NF-κB p65 (Ser^536) Sandwich ELISA kit following manufacturer's protocol (Cell Signaling Technology, Boston, Mass.). […] After extensive washing, the captured phospho-NF-κB p65 protein was detected by incubating with horse radish peroxidase (HRP) conjugated NF-κB p65 rabbit mAb followed by washing and color development using the TMB substrate. Absorbance at 450 nm was measured using a microplate reader (Model 680; Bio-Rad Laboratories, Hercules, Calif., USA). […]

Assay [2] has as its system LPS induced neuroinflammation. Kind of assay: LPS induced neuroinflammation: cytokine ELISA of brain homogenates. The conditions noted are these: 25 mg/kg i.v. alternate days, day 7. The protocol: (§1) Animals and lipopolysaccharide induced neuroinflammation: Male C57/6J mice weighing 32 to 37 grams were housed five per cage at a temperature of 22±2° C. with 12 hour light/12 hour dark cycles with free access to laboratory food and water. Lipopolysaccharides (LPS) from Escherichia coli 026:B6, =10,000 EU/mg, purified by phenol extraction was purchased from Sigma (Sigma Aldrich, Mo., USA). The mice were randomly divided into seven groups: LPS, LPS+GA-1 or GA-2 or CP-1 or CP-2 or CP-3 or TAT. The LPS was administered intraperitoneally at […] in 100 μl of sterile saline followed by corn oil in the morning daily for six days. The GA or CP was administered intravenously at 25 mg/kg in 100 μl of sterile saline on alternate days. Additional control group included mice receiving saline alone. All animals were sacrificed on day 7.
Enzyme linked immunosorbent assay for cytokines: Frozen brain tissue was homogenized in RIPA lysis buffer (50 mmol/LTris-HCl, pH 6.8, 150 mmol/L NaCl, 5 mmol/L EDTA, 0.5% sodium deoxycholate, 0.5% NP-40) supplemented with a cocktail containing protease and phosphatase inhibitors (Chemicon, Millipore) on ice and then centrifuged at 16,000×g for 30 min. Supernatant was stored at −80° C. until further analysis. […]

The subject of assay [3] is LPS induced neuroinflammation. Kind of assay: LPS induced neuroinflammation: immunohistochemistry of hippocampal gliosis. The conditions noted are these: 25 mg/kg intravenously on alternate days; for CD11b+p65+ glial cells in the hippocampus: day 7; for GFAP+ astroglial cells in the hippocampus / Iba1+ microglial cells in the hippocampus: day 7, vs control peptide or untreated. How it is done: as §1
Histology and immunohistochemistry: The mice were sacrificed on day 7 by intra-cardial perfusion of 25 ml of 0.9% saline. Brain from each mouse was removed, one half was immediately frozen and the other half fixed in 4% paraformaldehyde for 24 h and later in 10% neutral buffered formalin for additional 24 h. Fixed tissues were subsequently processed for paraffin embedding. Tissue sections (5μ) stained with Harris's haematoxylin and counterstained with eosin were assessed for inflammation.
Immunohistochemistry: Serial 5μ thick coronal sections of each brain specimen were immunostained for markers of microglial cells, astrocytes and NF-κB p65. Briefly, after deparaffinization and hydration sections were subjected to antigen retrieval by microwave incubation in 10 mM sodium citrate buffer (pH 6.0) followed by sequential incubation in 30% hydrogen peroxide and blocking buffer (Enzo biosciences,) to reduce non-specific binding. The sections were then stained with the following primary monoclonal antibodies from EMD Millipore Corporation, Temecula, Calif., USA: anti-Iba-1 (AIF1 clone: Cat. #MABN92) or anti-glial fibrillary acidic protein (GFAP) clone GA5 (Cat. #MAB3402, Millipore) or anti-CD11b (Cat. #MABF513) clone M1/70 or anti-NF-κB p65 subunit clone 12H11 (Cat. #MAB3026). For mono-staining of Iba-1 and GFAP, detection was with the use of IHC select immunoperoxidase secondary detection system (Millipore). The peroxidase conjugated streptavidin-biotin method was used and brown staining was considered positive. For dual staining of CD11b and NF-κB p65 detection was achieved using the […]® (mouse-HRP/rabbit-AP) IHC kit (Catalog #: ADI-950-100, ENZO Lifesciences, Farmingdale, N.Y., USA). For each marker, to confirm the specificity of the antibodies, a separate set of sections from each group were incubated with only the secondary antibodies, a condition in which no staining was present.
Quantitative analysis of staining intensity: Images of the IHC stained sections were captured using the NIKON Multiphoton microscope with attached DS Ri2 camera. Five areas encompassing the hippocampus of each brain section were analyzed using the ImageJ Software. The number and the relative optical density of Iba1+ and GFAP+ glial cells was determined using the multi-point tool and the IHC-tool box. A training for brown/red color was performed prior to measurement to define the threshold for positive selection. Regions of interest encompassing the hippocampus were identified in each section, and the corresponding images were quantified using integrated optical density, normalized to the background optical density. Measurement of pixel intensity was restricted to the DAB or AP stained pixels of cells within defined circularity. Five consecutive coronal sections were assessed for each mouse.

Ac-EPAPESPQV-NH2 [GA-2]: the “absorbance suggestive of activated p65 in brain protein extract” value in assay [1] was 0.12+/−0.07. In assay [2], the “IFN-γ in brain tissue” value amounted to 3125.1 ± 815 pg/mL, the “IL-6 in brain tissue homogenates” value amounted to 19.6 ± 0.84 pg/mL, the “IL-12 in brain homogenates” value turned out to be 101.3 ± 15.9 pg/mL and the “TNF-α in brain homogenates” value came to 1199.2 ± 356.4 pg/mL. Moreover, in assay [3], the “CD11b+p65+ glial cells in the hippocampus” value is “significantly reduced in number and intensity”; the “GFAP+ astroglial cells in the hippocampus” value is “reduced”; the “Iba1+ microglial cells in the hippocampus” value is “reduced”.

With Ac-EPAPLAPYG-NH2 [GA-1], the “absorbance suggestive of activated p65 in brain protein extract” value in assay [1] is reported as 0.098+/−0.03. For the same substance, in assay [2], the “IFN-γ in brain tissue” value was found to be 2863.2 ± 697.5 pg/mL, the “IL-6 in brain tissue homogenates” value worked out at 18.7 ± 2 pg/mL, the “IL-12 in brain homogenates” value was 92.0 ± 9.3 pg/mL and the “TNF-α in brain homogenates” value amounted to 1500.1 ± 476 pg/mL. In assay [3], the “CD11b+p65+ glial cells in the hippocampus” value was “significantly reduced in number and intensity”; the “GFAP+ astroglial cells in the hippocampus” value is recorded as “reduced”; the “Iba1+ microglial cells in the hippocampus” value is “reduced”.
